In US8148391B2 (Cephalon, Inc., priority 2006, dated 2012):
Like-named read-outs stand apart in the source and are kept apart here. Each block holds one molecule with its values, some of them ahead of it.

Columns and labels:
[1] = molecular target: T1, baculovirus-expressed ALK (Homo sapiens, UniProt Q9UM73); assay: ALK Kinase Assay (ELISA-type, time-resolved fluorescence); assay type: biochemical
T1 construct: host or cells: baculovirus expression system
Summary of the method: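 Plates coated with phospholipase C-γ substrate (10 μg/mL in TBS); reaction started with 30 ng/ml ALK and run 15 min at 37° C. Phosphorylated substrate detected with Eu-N1-labeled PT66 antibody. IC50 from sigmoidal variable-slope fit of percent inhibition vs log concentration.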

[2] = molecular target: T2, c-Met (cytoplasmic domain) (Homo sapiens, UniProt P08581); assay: c-Met Kinase Assay (same methods as for ALK, with modifications); assay type: biochemical
T2 construct: 10 ng/mL c-Met (cytoplasmic domain, Invitrogen Corporation #PV3143); purchased Invitrogen Corporation PV3143
Summary of the method: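 Plates were coated with phospholipase C-γ substrate (10 μg/mL) in TBS, and the reaction was started with 10 ng/mL c-Met cytoplasmic domain and run 15 min at 37 °C. Phosphoproduct was detected with Eu-N1-labelled PT66 antibody. IC50 came from a variable-slope sigmoidal fit of percent inhibition vs log concentration.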

[3] = ALK kinase inhibition, 1 μM ATP (Km level), read-out: ALK Activity
[4] = c-Met kinase inhibition, 1 μM ATP (Km level), read-out: cMet Activity
[5] = ALK kinase inhibition, 1 μM ATP, read-out: ALK Activity
[6] = c-Met kinase inhibition, 1 μM ATP, read-out: cMet Activity
[7] = 1 μM ATP (Km level), read-out: ALK Activity (ALK Kinase Inhibition, IC50)
[8] = 1 μM ATP (Km level), read-out: cMet Activity (c-Met Kinase Inhibition, IC50)
[9] = 1 μM ATP (Km level), 30 ng/ml ALK, 37° C., 15 minutes, read-out: ALK Activity (ALK kinase inhibition, IC50 class)
[10] = 1 μM ATP (Km level), 10 ng/mL c-Met, read-out: cMet Activity (c-Met kinase inhibition, IC50 class)

T1 sequence (Q9UM73 19-1620): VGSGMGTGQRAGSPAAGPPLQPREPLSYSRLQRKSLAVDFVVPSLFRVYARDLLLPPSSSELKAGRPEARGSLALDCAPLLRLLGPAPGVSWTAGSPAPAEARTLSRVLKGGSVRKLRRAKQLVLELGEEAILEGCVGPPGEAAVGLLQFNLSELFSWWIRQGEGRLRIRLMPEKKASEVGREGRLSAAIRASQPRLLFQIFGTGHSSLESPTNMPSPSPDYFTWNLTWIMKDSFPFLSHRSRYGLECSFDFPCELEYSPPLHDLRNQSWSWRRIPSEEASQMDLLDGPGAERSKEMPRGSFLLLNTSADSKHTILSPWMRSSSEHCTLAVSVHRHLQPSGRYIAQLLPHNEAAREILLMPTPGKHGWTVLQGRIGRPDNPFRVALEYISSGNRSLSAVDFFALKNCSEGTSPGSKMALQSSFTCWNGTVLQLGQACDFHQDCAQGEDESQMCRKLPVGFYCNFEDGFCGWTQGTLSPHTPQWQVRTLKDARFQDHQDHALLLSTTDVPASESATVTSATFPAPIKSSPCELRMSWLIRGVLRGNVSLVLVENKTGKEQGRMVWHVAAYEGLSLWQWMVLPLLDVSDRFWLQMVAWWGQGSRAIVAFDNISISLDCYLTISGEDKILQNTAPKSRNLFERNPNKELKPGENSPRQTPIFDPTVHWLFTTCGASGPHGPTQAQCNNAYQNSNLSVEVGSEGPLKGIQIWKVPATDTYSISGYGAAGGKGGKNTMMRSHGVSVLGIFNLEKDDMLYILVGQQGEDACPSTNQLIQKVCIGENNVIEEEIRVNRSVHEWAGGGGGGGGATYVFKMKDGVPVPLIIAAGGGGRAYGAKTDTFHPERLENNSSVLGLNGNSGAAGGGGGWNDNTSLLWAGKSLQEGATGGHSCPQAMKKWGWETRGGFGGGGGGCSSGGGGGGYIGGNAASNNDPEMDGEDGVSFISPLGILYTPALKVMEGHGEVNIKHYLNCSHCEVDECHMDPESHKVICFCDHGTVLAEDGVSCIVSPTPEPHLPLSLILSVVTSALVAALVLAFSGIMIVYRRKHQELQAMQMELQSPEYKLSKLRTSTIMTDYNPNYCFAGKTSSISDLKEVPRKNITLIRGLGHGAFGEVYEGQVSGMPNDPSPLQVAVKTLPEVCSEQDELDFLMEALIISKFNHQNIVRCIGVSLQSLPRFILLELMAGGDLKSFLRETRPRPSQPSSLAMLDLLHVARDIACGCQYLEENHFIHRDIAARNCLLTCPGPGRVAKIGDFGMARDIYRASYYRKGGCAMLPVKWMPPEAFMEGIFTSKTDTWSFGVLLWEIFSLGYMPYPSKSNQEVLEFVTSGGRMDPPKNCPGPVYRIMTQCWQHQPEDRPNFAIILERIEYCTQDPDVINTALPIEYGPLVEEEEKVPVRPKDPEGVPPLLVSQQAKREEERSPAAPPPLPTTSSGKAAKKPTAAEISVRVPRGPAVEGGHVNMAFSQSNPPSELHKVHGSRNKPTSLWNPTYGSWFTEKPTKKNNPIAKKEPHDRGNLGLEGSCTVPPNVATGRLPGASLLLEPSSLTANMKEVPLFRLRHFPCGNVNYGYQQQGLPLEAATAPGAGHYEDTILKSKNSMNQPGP
T2 sequence (P08581 956-1390 limits assumed): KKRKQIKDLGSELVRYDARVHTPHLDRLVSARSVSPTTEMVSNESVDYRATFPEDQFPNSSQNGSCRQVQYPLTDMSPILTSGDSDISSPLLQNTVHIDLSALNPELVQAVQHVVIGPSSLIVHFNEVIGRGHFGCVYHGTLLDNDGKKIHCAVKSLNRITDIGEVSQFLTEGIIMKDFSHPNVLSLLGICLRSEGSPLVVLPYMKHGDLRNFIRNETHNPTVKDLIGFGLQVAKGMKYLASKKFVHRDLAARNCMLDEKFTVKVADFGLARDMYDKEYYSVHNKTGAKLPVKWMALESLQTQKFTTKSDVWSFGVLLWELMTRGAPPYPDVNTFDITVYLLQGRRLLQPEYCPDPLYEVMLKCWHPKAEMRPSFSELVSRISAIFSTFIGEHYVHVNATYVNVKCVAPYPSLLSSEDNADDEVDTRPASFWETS

Structure (SMILES): C#CCN1CCN(C)c2cc(Nc3ncc(Cl)c(Nc4ccccc4C(=O)NC)n3)ccc2C1 [Example 487, 2-[5-Chloro-2-(1-methyl-4-prop-2-ynyl-2,3,4,5-tetrahydro-1H-benzo[e][1,4]diazepin-8-ylamino)-pyrimidin-4-ylamino]-N-methyl-benzamide]
IC50 [1, 3]: < 100 nM
IC50 [2, 4]: < 100 nM

Structure (SMILES): COc1cc2c(cc1Nc1ncc(Cl)c(Nc3ccc(N4CCOCC4)cc3OC)n1)N(C)CCNC2 [Example 493, 5-Chloro-N*2*-(7-methoxy-1-methyl-2,3,4,5-tetrahydro-1H-benzo[e][1,4]diazepin-8-yl)-N*4*-(2-methoxy-4-morpholin-4-yl-phenyl)-pyrimidine-2,4-diamine]
IC50 [1, 3]: < 100 nM
IC50 [2, 4]: > 10000 nM

Structure (SMILES): CCN(CCO)Cc1cc(Nc2nc(Nc3cc4c(cc3OC)CCN(CC(=O)N(C)C)CC4)ncc2Cl)ccc1F [Example 735, 2-{7-[5-Chloro-4-(3-{[ethyl-(2-hydroxy-ethyl)-amino]-methyl}-4-fluoro-phenylamino)-pyrimidin-2-ylamino]-8-methoxy-1,2,4,5-tetrahydro-benzo[d]azepin-3-yl}-N,N-dimethyl-acetamide]
IC50 [1, 7]: < 100 nM
IC50 [2, 8]: > 10000 nM

Structure (SMILES): COc1c(Nc2ncc(Cl)c(NC3CCCCNC3=O)n2)ccc2c1CCC(N1CCOCC1)CC2 (mixture of isomers) [Example 902, 3-[5-Chloro-2-(1-methoxy-7-morpholin-4-yl-6,7,8,9-tetrahydro-5H-benzocyclohepten-2-ylamino)-pyrimidin-4-ylamino]-azepan-2-one]
IC50 [1, 7]: 100 to 1000 nM
IC50 [2, 8]: > 10000 nM

Structure (SMILES): CCN1CCc2ccc(Nc3ncc(C(F)(F)F)c(Nc4ccccc4C(=O)NC)n3)cc2CC1 [Example 195, 2-[2-(3-Ethyl-2,3,4,5-tetrahydro-1H-benzo[d]azepin-7-ylamino)-5-trifluoromethyl-pyrimidin-4-ylamino]-N-methyl-benzamide]
IC50 [1, 3]: < 100 nM
IC50 [2, 4]: < 100 nM

Structure (SMILES): O=C1CCCc2ccc(Nc3ncc(Cl)c(Nc4c(F)cccc4OCCCOCc4ccccc4)n3)cc2N1 [Example 1283, 8-{4-[2-(3-Benzyloxy-propoxy)-6-fluoro-phenylamino]-5-chloro-pyrimidin-2-ylamino}-1,3,4,5-tetrahydro-1-benzazepin-2-one]
IC50 [1, 9]: 1000 to 10000 nM
IC50 [2, 10]: > 10000 nM

Structure (SMILES): COCCN1CCc2ccc(Nc3ncc(Cl)c(Nc4ccccc4C(=O)NC(C)C)n3)cc2CC1 [Example 342, 2-{5-Chloro-2-[3-(2-methoxy-ethyl)-2,3,4,5-tetrahydro-1H-benzo[d]azepin-7-ylamino]-pyrimidin-4-ylamino}-N-isopropyl-benzamide]
IC50 [1, 3]: < 100 nM
IC50 [2, 4]: 100 to 1000 nM

Structure (SMILES): CS(=O)(=O)N[C@@H]1CCCC[C@H]1Nc1nc(Nc2ccc3c(c2)C2CCC3CN(C(=O)C(F)(F)F)C2)ncc1Cl (mixture of isomers) [Example 292, N-((1R,2R)-2-{5-Chloro-2-[10-(2,2,2-trifluoro-acetyl)-10-aza-tricyclo[6.3.2.0*2,7*]trideca-2,4,6-trien-4-ylamino]-pyrimidin-4-ylamino}-cyclohexyl)-methanesulfonamide]
IC50 [1, 3]: < 100 nM
IC50 [2, 4]: 1000 to 10000 nM

Structure (SMILES): CCN1C(=O)C(N)CCc2c1ccc(Nc1ncc(Cl)c(N[C@@H]3CCCC[C@H]3NS(C)(=O)=O)n1)c2OC (stereo partly drawn) [Example 1338, N-{(1R,2R)-2-[2-(3-Amino-1-ethyl-6-methoxy-2-oxo-2,3,4,5-tetrahydro-1H-benzo[b]azepin-7-ylamino)-5-chloro-pyrimidin-4-ylamino]-cyclohexyl}-methanesulfonamide]
IC50 [1, 9]: 100 to 1000 nM
IC50 [2, 10]: > 10000 nM

Structure (SMILES): COCCNC1CCc2ccc(Nc3ncc(Cl)c(Nc4ccccc4S(=O)(=O)N4CCC(O)C4)n3)c(OC)c2CC1 (stereo not shown) [Example 695, 1-(2-{5-Chloro-2-[1-methoxy-7-(2-methoxy-ethylamino)-6,7,8,9-tetrahydro-5H-benzocyclohepten-2-ylamino]-pyrimidin-4-ylamino}-benzenesulfonyl)-pyrrolidin-3-ol]
IC50 [1, 7]: < 100 nM
IC50 [2, 8]: 1000 to 10000 nM

Structure (SMILES): CCN1CCN(CC)c2cc(Nc3ncc(Cl)c(N[C@@H]4[C@H](C(N)=O)[C@H]5C=C[C@@H]4C5)n3)ccc2C1 [Example 714, (2-exo,3-exo)-3-[5-Chloro-2-(1,4-diethyl-2,3,4,5-tetrahydro-1H-benzo[e][1,4]diazepin-8-ylamino)-pyrimidin-4-ylamino]-bicyclo[2.2.1}hept-5-ene-2-carboxylic acid amide]
IC50 [1, 7]: < 100 nM
IC50 [2, 8]: 1000 to 10000 nM

Structure (SMILES): COc1cc2c(cc1Nc1ncc(Cl)c(Nc3ccccc3S(=O)(=O)N3CC[C@H](C)C3)n1)CCN(CC(=O)N(C)C)CC2 [Example 856, 2-(7-{5-Chloro-4-[2-((S)-3-methyl-pyrrolidine-1-sulfonyl)-phenylamino]-pyrimidin-2-ylamino}-8-methoxy-1,2,4,5-tetrahydro-benzo[d]azepin-3-yl)-N,N-dimethyl-acetamide]
IC50 [1, 7]: < 100 nM
IC50 [2, 8]: 100 to 1000 nM

Structure (SMILES): COc1cc2c(cc1Nc1ncc(Cl)c(N[C@H]3[C@@H](C(N)=O)[C@@H]4C=C[C@H]3C4)n1)CCN(CC(=O)N(C)C)CC2 [Example 1123, (1S,2S,3R,4R)-3-[5-Chloro-2-(3-dimethylcarbamoylmethyl-8-methoxy-2,3,4,5-tetrahydro-1H-benzo[d]azepin-7-ylamino)-pyrimidin-4-ylamino]-bicyclo[2.2.1]hept-5-ene-2-carboxylic acid amide]
IC50 [1, 9]: < 100 nM
IC50 [2, 10]: > 10000 nM

Structure (SMILES): COc1cc2c(cc1Nc1ncc(Cl)c(Nc3ccc(N4CCOCC4)cc3OC)n1)CCN(C(=O)CN(C)C)CC2 [Example 1121, 1-{7-[5-Chloro-4-(2-methoxy-4-morpholin-4-yl-phenylamino)-pyrimidin-2-ylamino]-8-methoxy-1,2,4,5-tetrahydro-benzo[d]azepin-3-yl}-2-dimethylamino-ethanone]
IC50 [1, 9]: < 100 nM
IC50 [2, 10]: > 10000 nM

The remaining lines, values ahead:

IC50 [1, 5]: < 100 nM
IC50 [2, 6]: > 10000 nM
Structure (SMILES): COc1cc2c(cc1Nc1ncc(Cl)c(N[C@H]3[C@@H](C(N)=O)[C@@H]4C=C[C@H]3C4)n1)CCN(CCN1CCOCC1)CC2 [Example 1529, (1S,2S,3R,4R)-3-{5-Chloro-2-[8-methoxy-3-(2-morpholin-4-yl-ethyl)-2,3,4,5-tetrahydro-1H-3-benzazepin-7-ylamino]-pyrimidin-4-ylamino}-bicyclo[2.2.1]hept-5-ene-2-carboxylic acid amide]

IC50 [1, 5]: < 100 nM
IC50 [2, 6]: 1000 to 10000 nM
Structure (SMILES): CCN1CCCOc2cc(Nc3ncc(Cl)c(N[C@@H]4CCCC[C@H]4NS(C)(=O)=O)n3)c(F)cc21 [Example 1687, N-{(1R,2R)-2-[5-Chloro-2-(9-ethyl-2-fluoro-6,7,8,9-tetrahydro-5-oxa-9-aza-benzocyclohepten-3-ylamino)-pyrimidin-4-ylamino]-cyclohexyl}-methanesulfonamide]

IC50 [1, 5]: < 100 nM
IC50 [2, 6]: 100 to 1000 nM
Structure (SMILES): NC(=O)C1C2C=CC(C2)C1Nc1nc(Nc2ccc3c(c2)CNC(=O)CC3)ncc1Cl (stereo not drawn) [Example 1797, 3-exo-[5-Chloro-2-(3-oxo-2,3,4,5-tetrahydro-1H-benzo[c]azepin-8-ylamino)-pyrimidin-4-yl]aminobicyclo[2.2.1]hept-5-ene-2-exo-carboxamide]

IC50 [1, 5]: < 100 nM
IC50 [2, 6]: 100 to 1000 nM
Structure (SMILES): CC1(C)CCC(=O)Nc2cc(Nc3ncc(Cl)c(Nc4ccccc4OCC#N)n3)ccc21 [Example 1578, {2-[5-Chloro-2-(5,5-dimethyl-2-oxo-2,3,4,5-tetrahydro-1H-benzo[b]azepin-8-ylamino)-pyrimidin-4-ylamino]-phenoxy}-acetonitrile]

IC50 [1, 5]: 1000 to 10000 nM
IC50 [2, 6]: < 100 nM
Structure (SMILES): CNC(=O)c1cccc(F)c1Nc1nc(Nc2ccc3c(c2)CN(C)C(=O)CC3)ncc1Cl [Example 1806, 3-Fluoro-2-[5-chloro-2-(2-methyl-3-oxo-2,3,4,5-tetrahydro-1H-benzo[c]azepin-8-ylamino)-pyrimidin-4-ylamino]-N-methyl-benzamide]

IC50 [1, 9]: < 100 nM
IC50 [2, 10]: > 10000 nM
Structure (SMILES): CCN1C(=O)[C@H](NC(=O)CN(C)C)CCc2c1ccc(Nc1ncc(Cl)c(N[C@H]3[C@@H](C(N)=O)[C@@H]4C=C[C@H]3C4)n1)c2OC (single isomer, unassigned) [Example 1354]

IC50 [1, 5]: 1000 to 10000 nM
IC50 [2, 6]: 100 to 1000 nM
Structure (SMILES): Cc1nnc(-c2cccc(F)c2Nc2nc(Nc3ccc4c(c3)CCOC(=O)N4C)ncc2Cl)o1 [Example 1787, 2-{5-Chloro-4-[2-fluoro-6-(5-methyl-[1,3,4]oxadiazol-2-yl)-phenylamino]-pyrimidin-2-ylamino}-5-methyl-8,9-dihydro-5H-7-oxa-5-aza-benzocyclohepten-6-one]

IC50 [1, 5]: < 100 nM
IC50 [2, 6]: 1000 to 10000 nM
Structure (SMILES): CCN1C(=O)CCC(C)(C)c2ccc(Nc3ncc(Cl)c(Nc4ccc(N5CCOCC5)cc4OC)n3)cc21 [Example 1587, 8-[5-Chloro-4-(2-methoxy-4-morpholin-4-yl-phenylamino)-pyrimidin-2-ylamino]-1-ethyl-5,5-dimethyl-1,3,4,5-tetrahydro-benzo[b]azepin-2-one]

IC50 [1, 9]: 100 to 1000 nM
IC50 [2, 10]: 1000 to 10000 nM
Structure (SMILES): COCCN1CCc2ccc(Nc3ncc(Cl)c(N[C@@H]4CCC[C@@H](N(CC#N)S(C)(=O)=O)C4)n3)cc2CC1 (relative stereo) [Example 1382, rel-N-((1R,3R)-3-{5-Chloro-2-[3-(2-methoxy-ethyl)-2,3,4,5-tetrahydro-1H-benzo[d]azepin-7-ylamino]-pyrimidin-4-ylamino}-cyclohexyl)-N-cyanomethyl-methanesulfonamide]
